Paper PMC11470957, “Principles of paralog-specific targeted protein degradation engaging the C-degron E3 KLHDC2” (Nature Communications, 2024)
Several values for one entry are separate records, joined by “and”; a condition that tells them apart may be missing. Equal entries are not always repeated. Blank lines part the entries; values can stand above or below the compound they belong to.

Legend:
KLHDC2^SBD [1] = biological target: T1, KLHDC2^SBD (Homo sapiens, UniProt Q9Y2U9); test: Thermal shift assay (Sypro Orange) probing stabilization of KLHDC2^SBD; assay type: binding; set-up: KLHDC2^SBD (15-361) and its Avi-tagged counterpart were expressed in E. coli Rosetta2 cells; 6XHis-MBP (N, cleaved yes); made in house; host or cells: E. coli Rosetta2; details: KLHDC2^SBD; ligand concentration not given
T1 sequence (Q9Y2U9 15-361): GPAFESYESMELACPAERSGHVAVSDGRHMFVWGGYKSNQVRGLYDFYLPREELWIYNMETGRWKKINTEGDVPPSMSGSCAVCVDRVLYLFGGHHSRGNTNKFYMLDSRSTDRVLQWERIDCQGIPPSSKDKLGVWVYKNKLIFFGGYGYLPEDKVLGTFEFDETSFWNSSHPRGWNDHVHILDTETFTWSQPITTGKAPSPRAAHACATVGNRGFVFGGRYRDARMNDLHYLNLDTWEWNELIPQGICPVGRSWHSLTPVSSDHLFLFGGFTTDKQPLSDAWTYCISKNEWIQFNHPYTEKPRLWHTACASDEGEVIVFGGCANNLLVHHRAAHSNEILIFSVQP
Protocol: In an attempt to identify non-peptide ligands that target KLHDC2’s substrate binding domain (SBD), we developed a thermal shift assay probing for stabilization of KLHDC2^SBD upon ligand addition. […] We utilized the thermal shift assay to screen ~ 9,000 molecules from a diverse collection of lead-like molecules (Figs. 1b, S1a, Supplementary Table 1).
Experimental compounds (200 nl each) were dispensed into a 384-well PCR plate using the Labcyte ECHO 655 T. The assay solution, comprising 0.5 μM KLHDC2, 25 mM HEPES, 200 mM NaCl, and 5% Sypro Orange at pH 7.5, was added to achieve a final volume of 20 μl. Negative control wells contained only DMSO, while positive control wells contained a di-Gly substrate peptide derived from SELK. Fluorescence measurements of Sypro Orange in each sample were taken using a Quantstudio 5 or Quantstudio 6, with temperatures ranging from 23 to 75 °C at a rate of 0.05 °C/s. Data analysis involved calculating thermal stability using the Boltzmann and first derivative minima equations in Thermo Scientific Protein Thermal Shift software v1.4. The resulting data were uploaded to CDD Vault for further analysis.
The 8892-compound lead-like one library was screened for its ability to stabilize KLHDC2 using a sypro orange-based thermal stability single-point assay.
Supplementary Ta b l e 1. Small molecule screening data
Category Parameter Description
Assay Ty p e o f assay Thermal Stability Screen
Primary measurement RFU of Sypro Orange
Key reagents Sypro Orange
Assay protocol Experimental compounds (200nl each) were dispensed into […]
a 384-well PCR plate using the Labcyte ECHO 655T. The […]
assay solution, comprising 0.5µM KLHDC2, 25mM HEPES,
200mM NaCl, and 5% Sypro Orange at pH 7.5, was added […]
to achieve a final volume of 20μl. Negative control wells […]
contained only DMSO, while positive control wells […]
contained peptide sub2. Fluorescence measurements of
Sypro Orange in each sample were taken using a
Quantstudio 5 or Quantstudio 6, with temperatures ranging […]
from 23 to 75°C at a rate of 0.05°C/second. Data analysis […]
involved calculating thermal stability using the Boltzmann […]
and first derivative minima equations in Thermo Scientific
Protein Thermal Shift software v1.4. The resulting data […]
were uploaded to CDD Vault for further analysis.
Library Library size 10041
Library composition The library was curated from compounds cherry picked […]
from St. Jude’s collection, representative of 80% of the […]
entire collection based on scaffold diversity (2D Molecular […]
fingerprinting based clustering) and structural properties: […]
lipophilicity (cLogP<3), size (MW 200-300 Da), and no […]
structural alerts (PAINS).
Source The compound collection was curated from multiple […]
vendors and stored on-site.
Screen Format The assay was completed in 26 384 well plates
Concentration(s) tested Compounds were tested at 100µM, and then a 16-point […]
serial dilution was performed on select compounds.
Plate controls DMSO as negative control and peptide sub2 as positive […]
Reagent/ compound dispensing system Multidrop Combi and Labcyte ECHO 655T […]
Detection instrument and software Quant Studio 5 and Quant Studio 6 and Thermo Scientific […]
Protein Thermal Shift software v1.4
Correction factors No correction factors were applied.

KLHDC2^SBD [2] = biological target: T1, KLHDC2^SBD; test: TR-FRET assay, competition with di-Gly degron peptide binding to KLHDC2^SBD; set-up: KLHDC2^SBD (15-361) and its Avi-tagged counterpart were expressed in E. coli Rosetta2 cells; 6XHis-MBP (N, cleaved yes); made in house; host or cells: E. coli Rosetta2; details: inhibition of KLHDC2^SBD binding to a di-Gly degron peptide; read-out: TR-FRET IC50
Protocol: TR-FRET assays were carried out in black 384-well microtiter plates at a final volume of 20 μL per well. An assay cocktail was prepared as a mixture of 50 nM Biotin-KLHDC2 SBD, 20 nM AlexaFluor488-RIC8B peptide, 2.5 nM Tb-Streptavidin (ThermoFisher) in assay buffer (25 mM HEPES, 100 mM NaCl, 0.1% Triton X-100, 0.5 mM DTT, pH 7.5). The assay cocktail was incubated for thirty-minutes at room temperature and 20 μl distributed to assay plates. Molecules were distributed to the plates at the indicated concentration and the assay mixture was incubated for 1 h at room temperature prior to measuring the TR-FRET signal with a PHERAstar FS plate reader (BMG Labtech) equipped with modules for excitation at 337 nm and emissions at 490 and 520 nm. The integration start was set to 100 µs and the integration time to 200 µs. The number of flashes was fixed at 100. The ratio of 520/490 was used as TR-FRET signal in calculations. Assay endpoints were normalized to 100% (buffer only) and used for curve fitting in Prism.

[3] = biological target: neddylated CRL2^KLHDC2 / BRD3^BD2 (Homo sapiens, UniProt Q15059+Q9Y2U9, Q9Y2U9:G405K/Q9Y2U9:S406K); test: biochemical
neddylated CRL2^KLHDC2 = neddylated CRL2^KLHDC2 (Homo sapiens, UniProt Q9Y2U9, G405K/S406K); test: biochemical
[4] = Solubility as observed in the ITC sample cell; details: at 40 μM in the ITC sample cell
KLHDC2^SBD [5] = biological target: T1, KLHDC2^SBD; test: ITC, binary binding of small molecule to KLHDC2^SBD
KLHDC2^SBD / BRD3^BD2 = KLHDC2^SBD / BRD3^BD2 (Homo sapiens, UniProt Q15059+Q9Y2U9); test: ITC, ternary complex KLHDC2^SBD with PROTAC-BRD3^BD2
Sequence of KLHDC2^SBD / BRD3^BD2 (Q15059 306-416, one chain of several): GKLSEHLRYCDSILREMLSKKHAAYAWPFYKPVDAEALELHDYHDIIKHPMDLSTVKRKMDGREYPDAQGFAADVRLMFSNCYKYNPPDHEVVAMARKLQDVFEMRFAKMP

[6] = test system: BD2 domain from BRD2, BRD3, or BRD4 / neddylated CRL2^KLHDC2; test: Pulse-chase PROTAC-dependent ubiquitylation of BRD BD2 domains by neddylated CRL2^KLHDC2; details: neddylated CRL2^KLHDC2 not subject to autoinhibition; Fig 3e
[7] = cell: ligand, syringe: KLHDC2^SBD
[8] = cell: PROTAC-BRD3^BD2, syringe: KLHDC2^SBD

Thermal shift ΔTm (KLHDC2^SBD [1]): 3.9 ± 0.07 °C
IC50 (KLHDC2^SBD [2]): 10300 ± 200 nM
SMILES: COc1ccc2cc(-c3nc(CC(=O)NCC(=O)O)cs3)ccc2c1 [SJ46413]

Thermal shift ΔTm (KLHDC2^SBD [1]): 2.7 ± 0.3 °C
IC50 (KLHDC2^SBD [2]): 7100 ± 200 nM
SMILES: O=C(O)CNC(=O)Cc1csc(-c2cccc3cccnc23)n1 [SJ46414]

Thermal shift ΔTm (KLHDC2^SBD [1]): 3.7 ± 0.05 °C
IC50 (KLHDC2^SBD [2]): 9800 ± 100 nM
SMILES: O=C(O)CNC(=O)Cc1csc(-c2cccc3ccccc23)n1 [SJ46415]

Thermal shift ΔTm (KLHDC2^SBD [1]): 6.0 ± 0.1 °C
IC50 (KLHDC2^SBD [2]): 1800 ± 100 nM
SMILES: O=C(O)CNC(=O)Cc1csc(-c2ccc3ccccc3c2F)n1 [SJ46416]

Thermal shift ΔTm (KLHDC2^SBD [1]): 4.3 ± 0.1 °C
IC50 (KLHDC2^SBD [2]): 1700 ± 60 nM
SMILES: COc1ccc2ccc(-c3nc(CC(=O)NCC(=O)O)cs3)cc2c1 [SJ46417]

IC50 [3]: 2200 nM
IC50 (neddylated CRL2^KLHDC2): 15300 nM
solubility [4]: solubility issues
Kd (KLHDC2^SBD [5]; ITC Kd, cell: ligand, syringe: KLHDC2^SBD): 740 nM and 737 nM
Kd (KLHDC2^SBD [5]; Kd, Rep1/Rep2, ITC source data Fig4a, syringe KLHDC2, cell PROTAC alone): 690 nM and 789 nM
ITC -TΔS (KLHDC2^SBD [5]; [7]): -5.26 +/- 0.22 kcal/mol-1
ITC stoichiometry of binding N (KLHDC2^SBD [5]; [7]): 0.4 and ~ 0.5
ITC ΔG (KLHDC2^SBD [5]; [7]): -8.61 +/- 0.04 kcal/mol-1
ITC ΔH (KLHDC2^SBD [5]; [7]): -3.35 +/- 0.11 kcal/mol-1
cooperativity α (KLHDC2^SBD / BRD3^BD2; BRD3^BD2, KLHDC2^SBD): 2.9
ITC -TΔS (ternary) (KLHDC2^SBD / BRD3^BD2; [8]): -5.26 +/- 0.18 kcal/mol-1
ITC N (ternary) (KLHDC2^SBD / BRD3^BD2; [8]): 0.4 and ~ 0.5
ITC ΔG (ternary) (KLHDC2^SBD / BRD3^BD2; [8]): -9.33 +/- 0.05 kcal/mol-1
SMILES: Cc1sc2c(c1C)C(c1ccc(Cl)cc1)=N[C@@H](CC(=O)N1CCN(CCOc3ccc4ccc(-c5nc(CC(=O)NCC(=O)O)cs5)cc4c3)CC1)c1nnc(C)n1-2 [SJ46423]
polyubiquitylation of the BD2 domain from BRD2, BRD3, or BRD4 [6]: able to promote polyubiquitylation

Thermal shift ΔTm (KLHDC2^SBD [1]): 1.3 ± 0.5 °C
IC50 (KLHDC2^SBD [2]): 8200 ± 300 nM
SMILES: O=C(O)CNC(=O)Cc1csc(-c2ccc3c(c2)NCCO3)n1 [SJ49356]
